According to US20010006697A1, “Composition and method for producing low cholesterol eggs” (priority 1997, published 2001):
Several values for one entry are separate records, joined by “and”; a condition that tells them apart may be missing. Equal values may be shown once. Read-outs that look alike come from different tables or passages of the source. Marks after values point to notes of the source that are not given here.

Assays:
[1] = system: laying hens; settings: 0.03% of diet; day 35, fasted 15 hours
[2] = system: plasma VLDL particles; settings: day 35
[3] = system: plasma VLDL particles; settings: day 35; remark: listed apart in the source
[4] = system: laying hens; test: Yolk cholesterol contents of eggs from statin-treated laying hens; type: in vivo, White Leghorn hens
Protocol: Agric. […] Hens were treated as described in Example 1. […] The eggs were hard-cooked, and the yolks were separated, weighed, and crumbled. […] Agric. […] Egg homogenate filtrates were analyzed for cholesterol as described in Rudel, L. L. and Morris, M. D., J. Lipid Res. 14:364-366 (1973).

[5] = system: laying hens; test: Egg production, egg weights and yolk weights of statin-treated laying hens; type: in vivo, White Leghorn hens
Protocol: Hens were treated as described in Example 1. Egg yolk was weighed as outlined in Example 2.

[6] = system: laying hens; test: Liver cholesterol content; settings: day 35
[7] = 0.06% of diet, week 5 (maximal reduction for simvastatin, lovastatin)
[8] = 0.03% of diet, Overall (weeks 1-5)
[9] = 0.06% of diet, Overall (weeks 1-5)

Q: Which “change of plasma total cholesterol concentration vs control” value [1] does the source give for CCC(C)(C)C(=O)O[C@H]1C[C@@H](C)C=C2C=C[C@H](C)[C@H](CC[C@@H]3C[C@@H](O)CC(=O)O3)[C@H]21 [Simvastatin] here?
A: The value was −36%.

Q: What about the “Plasma VLDL composition: EC (esterified cholesterol)” value ([2]; 0.03% of diet) of the same compound?
A: Its value is 0.06 ± 0.02^a,b %.

Q: What about the “Plasma VLDL composition: PC (phosphatidylcholine)” value ([2]; 0.03% of diet) of the same compound?
A: The value was 12.15 ± 0.58^b %.

Q: What about the “Plasma VLDL composition: PE (phosphatidylethanolamine)” value ([2]; 0.03% of diet) of the same compound?
A: The value was 3.96 ± 0.17^a %.

Q: And the “Plasma VLDL composition: Protein” value ([2]; 0.03% of diet)?
A: Its value is 17.99 ± 1.48^a %.

Q: And the “Plasma VLDL composition: SM (sphingomyelin)” value ([2]; 0.03% of diet)?
A: Its value is 1.77 ± 1.24^a %.

Q: What about the “Plasma VLDL composition: TG (triglyceride)” value ([2]; 0.03% of diet) of the same compound?
A: Its value is 61.23 ± 2.98^a %.

Q: And the “Plasma VLDL composition: UC (unesterified cholesterol)” value ([2]; 0.03% of diet)?
A: The value was 2.84 ± 0.20^a %.

Q: And the “Plasma VLDL composition: EC (esterified cholesterol)” value ([2]; 0.06% of diet)?
A: Its value is 0.08 ± 0.04^a,b %.

Q: What about the “Plasma VLDL composition: PC (phosphatidylcholine)” value ([2]; 0.06% of diet) of the same compound?
A: Its value is 13.85 ± 0.61^a,b %.

Q: What about the “Plasma VLDL composition: PE (phosphatidylethanolamine)” value ([2]; 0.06% of diet) of the same compound?
A: The value was 3.65 ± 0.51^a %.

Q: And the “Plasma VLDL composition: Protein” value ([2]; 0.06% of diet)?
A: Its value is 17.06 ± 0.84^a %.

Q: And the “Plasma VLDL composition: SM (sphingomyelin)” value ([2]; 0.06% of diet)?
A: The value was 0.36 ± 0.23^a %.

Q: What about the “Plasma VLDL composition: TG (triglyceride)” value ([2]; 0.06% of diet) of the same compound?
A: Its value is 62.03 ± 1.53^a %.

Q: What about the “Plasma VLDL composition: UC (unesterified cholesterol)” value ([2]; 0.06% of diet) of the same compound?
A: Its value is 2.97 ± 0.13^a %.

Q: And the “Plasma VLDL particle Diameter nm” value ([3]; 0.03% of diet)?
A: Its value is 35.2 ± 0.1^a,b nm.

Q: What about the “Plasma VLDL particle Diameter nm” value ([3]; 0.06% of diet) of the same compound?
A: The value was 35.3 ± 0.1^a,b nm.

Q: What about the “Yolk cholesterol content, mg cholesterol/g yolk” value ([4]; 0.03% of diet, Week 0) of the same compound?
A: Its value is 10.8 ± 0.2^a mg cholesterol/g yolk.

Q: What about the “Yolk cholesterol content, mg cholesterol/yolk” value ([4]; 0.03% of diet, Week 0) of the same compound?
A: The value was 189.7 ± 6.1^a mg cholesterol/yolk.

Q: What about the “Yolk cholesterol content, mg cholesterol/g yolk” value ([4]; 0.03% of diet, Week 1) of the same compound?
A: The value was 11.2 ± 0.2^a,b mg cholesterol/g yolk.

Q: And the “Yolk cholesterol content, mg cholesterol/yolk” value ([4]; 0.03% of diet, Week 1)?
A: The value was 192.9 ± 5.3^a mg cholesterol/yolk.

Q: And the “Yolk cholesterol content, mg cholesterol/g yolk” value ([4]; 0.03% of diet, Week 2)?
A: The value was 10.3 ± 0.2^c,d mg cholesterol/g yolk.

Q: And the “Yolk cholesterol content, mg cholesterol/g yolk” value ([4]; 0.03% of diet, Week 3)?
A: Its value is 10.0 ± 0.1^c,d mg cholesterol/g yolk.

Q: And the “Yolk cholesterol content, mg cholesterol/yolk” value ([4]; 0.03% of diet, Week 3)?
A: The value was 166.2 ± 2.7^b mg cholesterol/yolk.

Q: And the “Yolk cholesterol content, mg cholesterol/g yolk” value ([4]; 0.03% of diet, Week 4)?
A: The value was 10.3 ± 0.2^b,c mg cholesterol/g yolk.

Q: What about the “Yolk cholesterol content, mg cholesterol/g yolk” value ([4]; 0.03% of diet, Week 5) of the same compound?
A: Its value is 10.1 ± 0.1^b mg cholesterol/g yolk.

Q: What about the “Yolk cholesterol content, mg cholesterol/yolk” value ([4]; 0.03% of diet, Week 5) of the same compound?
A: The value was 172.1 ± 2.9^b,c mg cholesterol/yolk.

Q: What about the “Yolk cholesterol content, mg cholesterol/g yolk” value ([4]; 0.06% of diet, Week 0) of the same compound?
A: Its value is 11.0 ± 0.3^a mg cholesterol/g yolk.

Q: What about the “Yolk cholesterol content, mg cholesterol/yolk” value ([4]; 0.06% of diet, Week 0) of the same compound?
A: The value was 191.1 ± 7.9^a mg cholesterol/yolk.

Q: And the “Yolk cholesterol content, mg cholesterol/g yolk” value ([4]; 0.06% of diet, Week 1)?
A: Its value is 10.7 ± 0.2^b mg cholesterol/g yolk.

Q: And the “Yolk cholesterol content, mg cholesterol/yolk” value ([4]; 0.06% of diet, Week 1)?
A: The value was 188.7 ± 9.1^a,b mg cholesterol/yolk.

Q: And the “Yolk cholesterol content, mg cholesterol/g yolk” value ([4]; 0.06% of diet, Week 2)?
A: The value was 10.0 ± 0.1^d mg cholesterol/g yolk.

Q: And the “Yolk cholesterol content, mg cholesterol/yolk” value ([4]; 0.06% of diet, Week 2)?
A: Its value is 170.8 ± 3.0^b mg cholesterol/yolk.

Q: And the “Yolk cholesterol content, mg cholesterol/g yolk” value ([4]; 0.06% of diet, Week 3)?
A: Its value is 9.8 ± 0.1^d mg cholesterol/g yolk.

Q: What about the “Yolk cholesterol content, mg cholesterol/yolk” value ([4]; 0.06% of diet, Week 3) of the same compound?
A: The value was 166.0 ± 4.6^b mg cholesterol/yolk.

Q: What about the “Yolk cholesterol content, mg cholesterol/g yolk” value ([4]; 0.06% of diet, Week 4) of the same compound?
A: The value was 9.9 ± 0.3^c mg cholesterol/g yolk.

Q: What about the “Yolk cholesterol content, mg cholesterol/yolk” value ([4]; 0.06% of diet, Week 4) of the same compound?
A: Its value is 170.4 ± 7.0^b mg cholesterol/yolk.

Q: And the “Yolk cholesterol content, mg cholesterol/g yolk” value ([4]; 0.06% of diet, Week 5)?
A: Its value is 9.3 mg cholesterol/g yolk and 9.3 ± 0.1^c mg cholesterol/g yolk.

Q: What about the “Yolk cholesterol content, mg cholesterol/yolk” value ([4]; 0.06% of diet, Week 5) of the same compound?
A: Its value is 158.0 mg cholesterol/yolk and 158.0 ± 2.7^c,d mg cholesterol/yolk.

Q: And the “yolk cholesterol reduction from control on a per yolk (egg) basis” value [4, 7]?
A: Its value is 22%.

Q: What about the “yolk cholesterol reduction from control per g of yolk (mg/g basis)” value [4, 7] of the same compound?
A: Its value is 20%.

Q: And the “Egg weight, g” value [5, 8]?
A: Its value is 63.3 ± 1.4^a,b (141) g.

Q: What about the “Hen-day egg production, %” value [5, 8] of the same compound?
A: Its value is 80.6 ± 2.3^a,b (141) %.

Q: What about the “Egg weight, g” value ([5]; 0.03% of diet, Week 1) of the same compound?
A: The value was 63.8 ± 1.0^a g.

Q: And the “Hen-day egg production, %” value ([5]; 0.03% of diet, Week 1)?
A: The value was 80.0 ± 2.5^d %.

Q: And the “Egg weight, g” value ([5]; 0.03% of diet, Week 2)?
A: Its value is 63.9 ± 0.9^a,b g.

Q: And the “Hen-day egg production, %” value ([5]; 0.03% of diet, Week 2)?
A: The value was 85.7 ± 1.5^a,b %.

Q: And the “Egg weight, g” value ([5]; 0.03% of diet, Week 3)?
A: Its value is 62.5 ± 0.7^b,c g.

Q: What about the “Hen-day egg production, %” value ([5]; 0.03% of diet, Week 3) of the same compound?
A: The value was 80.0 ± 1.2^b %.

Q: And the “Egg weight, g” value ([5]; 0.03% of diet, Week 4)?
A: Its value is 62.8 ± 0.7^b,c g.

Q: And the “Hen-day egg production, %” value ([5]; 0.03% of diet, Week 4)?
A: Its value is 80.0 ± 1.2^b,c %.

Q: And the “Egg weight, g” value ([5]; 0.03% of diet, Week 5)?
A: Its value is 62.9 ± 0.7^a,b g.

Q: And the “Hen-day egg production, %” value ([5]; 0.03% of diet, Week 5)?
A: The value was 80.0 ± 1.2^b,c %.

Q: What about the “Egg weight, g” value [5, 9] of the same compound?
A: Its value is 62.0 ± 1.9^a,b (144) g.

Q: What about the “Hen-day egg production, %” value [5, 9] of the same compound?
A: The value was 82.3 ± 1.9^a,b (144) %.

Q: What about the “Egg weight, g” value ([5]; 0.06% of diet, Week 1) of the same compound?
A: Its value is 63.8 ± 1.0^a g.

Q: What about the “Hen-day egg production, %” value ([5]; 0.06% of diet, Week 1) of the same compound?
A: The value was 85.7 ± 1.5^b,c %.

Q: What about the “Egg weight, g” value ([5]; 0.06% of diet, Week 2) of the same compound?
A: The value was 62.0 ± 1.0^b,c g.

Q: What about the “Hen-day egg production, %” value ([5]; 0.06% of diet, Week 2) of the same compound?
A: The value was 82.9 ± 1.0^b %.

Q: What about the “Egg weight, g” value ([5]; 0.06% of diet, Week 3) of the same compound?
A: The value was 61.0 ± 1.0^c g.

Q: What about the “Hen-day egg production, %” value ([5]; 0.06% of diet, Week 3) of the same compound?
A: Its value is 77.1 ± 1.2^b %.

Q: What about the “Egg weight, g” value ([5]; 0.06% of diet, Week 4) of the same compound?
A: The value was 62.2 ± 1.0^c,d g.

Q: What about the “Hen-day egg production, %” value ([5]; 0.06% of diet, Week 4) of the same compound?
A: The value was 82.9 ± 1.0^b %.

Q: What about the “Egg weight, g” value ([5]; 0.06% of diet, Week 5) of the same compound?
A: The value was 60.5 ± 0.8^b g.

Q: What about the “Hen-day egg production, %” value ([5]; 0.06% of diet, Week 5) of the same compound?
A: The value was 88.6 ± 1.0^a %.

Q: What about the “Liver Cholesterol mg/g liver” value ([6]; 0.03% of diet) of the same compound?
A: Its value is 3.1 ± 0.10^b mg/g liver.

Q: What about the “Liver Cholesterol mg/liver” value ([6]; 0.03% of diet) of the same compound?
A: Its value is 86.8 ± 2.9^a mg/liver.

Q: What about the “Liver Cholesterol mg/g liver” value ([6]; 0.06% of diet) of the same compound?
A: Its value is 2.9 ± 0.04^b,c mg/g liver.

Q: And the “Liver Cholesterol mg/liver” value ([6]; 0.06% of diet)?
A: Its value is 82.6 ± 1.9^a mg/liver.
